In ChEMBL document CHEMBL4706629, “New derivatives of 4'-phenyl-2,2':6',2″-terpyridine as promising anticancer agents” (Eur J Med Chem, 2021):
Active and inactive are the calls of the source. No cut-off for these calls is given here.

How the values were obtained:
DNA [1] = experiment: Induction of Escherichia coli supercoiled pUC19 plasmid DNA cleavage assessed as decrease in supercoiled form of plasmid at 25 uM incubated for 60 mins by agarose gel electrophoresis analysis; assay type: nucleic-acid assay
PANC-1 [2] = experiment: Cytotoxicity against human PANC-1 cells assessed as reduction in cell viability measured after 72 hrs by MTS assay; assay type: functional, cell-based; settings: PANC-1, 72 h
MCF7 [3] = experiment: Induction of apoptosis in human MCF7 cells assessed as necrotic cells at 7.5 uM measured after 48 hrs by Annexin V and dead cell kit analysis (reference value: 0.5%); assay type: functional
MCF7 [4] = experiment: Cell cycle arrest in human MCF7 cells assessed as accumulation at G2/M-phase at 5 uM measured after 24 hrs by muse cell analyser (reference value: 30.92 to 33.6%); assay type: functional
MCF7 [5] = experiment: Effect on cdc2 expression in human MCF7 cells at 1 to 5 uM measured after 24 hrs by Western blot analysis; assay type: functional, cell-based; settings: dose 1-5 µM
PANC-1 [6] = experiment: Cell cycle arrest in human PANC-1 cells assessed as accumulation at G0/G1-phase at 5 uM measured after 24 hrs by muse cell analyser (reference value: 48.28 to 48.7%); assay type: functional
PANC-1 [7] = experiment: Cell cycle arrest in human PANC-1 cells assessed as accumulation at G2/M-phase at 5 uM measured after 24 hrs by muse cell analyser (reference value: 36.3 to 36.88%); assay type: functional
MCF7 [8] = experiment: Cytotoxicity against human MCF7 cells assessed as reduction in cell viability measured after 72 hrs by MTS assay; assay type: functional, cell-based; settings: MCF7, 72 h
PANC-1 [9] = experiment: Cell cycle arrest in human PANC-1 cells assessed as increase in accumulation at G0/G1-phase measured after 24 hrs by muse cell analyser; assay type: functional, cell-based
PANC-1 [10] = experiment: Induction of apoptosis in human PANC-1 cells assessed as early apoptotic cells at 5 uM measured after 48 hrs by Annexin V and dead cell kit analysis (reference value: 10.95%); assay type: functional
MCF7 [11] = experiment: Down regulation of cyclin E1 expression in human MCF7 cells at 1 uM measured after 24 hrs by Western blot analysis; assay type: functional, cell-based
PANC-1 [12] = experiment: Effect on cdc2 expression in human PANC-1 cells at 0.5 to 5 uM measured after 24 hrs by Western blot analysis; assay type: functional, cell-based; settings: dose 0.5-5 µM
MCF7 [13] = experiment: Cell cycle arrest in human MCF7 cells assessed as accumulation at G0/G1-phase at 5 uM measured after 24 hrs by muse cell analyser (reference value: 52.65 to 53.3%); assay type: functional
PANC-1 [14] = experiment: Induction of apoptosis in human PANC-1 cells assessed as increase in PARP cleavage at 0.5 to 5 uM measured after 24 hrs by Western blot analysis; assay type: functional, cell-based; settings: dose 0.5-5 µM
MCF7 [15] = experiment: Up regulation of p53 expression in human MCF7 cells at 1 to 5 uM measured after 24 hrs by Western blot analysis; assay type: functional, cell-based; settings: dose 1-5 µM
PANC-1 [16] = experiment: Up regulation of p21 expression in human PANC-1 cells at 0.5 uM measured after 24 hrs by Western blot analysis; assay type: functional, cell-based
MCF7 [17] = experiment: Cell cycle arrest in human MCF7 cells assessed as accumulation at G2/M-phase at 7.5 uM measured after 24 hrs by muse cell analyser (reference value: 30.92 to 33.6%); assay type: functional
MCF7 [18] = experiment: Induction of apoptosis in human MCF7 cells measured after 48 hrs by Annexin V and dead cell kit analysis; assay type: functional, cell-based; settings: dose 5-7.5 µM
PANC-1 [19] = experiment: Induction of apoptosis in human PANC-1 cells assessed as viable cells at 7.5 uM measured after 48 hrs by Annexin V and dead cell kit analysis (reference value: 85.6%); assay type: functional; settings: read-out: Activity
[20] = Up regulation of HIF1 expression in human MCF7 cells at 1 to 5 uM measured after 24 hrs by Western blot analysis relative to control; assay type: functional; settings: dose 1-5 µM
PANC-1 [21] = experiment: Up regulation of p53 expression in human PANC-1 cells at 0.5 to 5 uM measured after 24 hrs by Western blot analysis relative to control; assay type: functional, cell-based; settings: dose 0.5-5 µM
K562 = experiment: Cytotoxicity against human K562 cells assessed as reduction in cell viability measured after 72 hrs by MTS assay; assay type: functional, cell-based; settings: K562, 72 h
PANC-1 [22] = experiment: Cell cycle arrest in human PANC-1 cells assessed as accumulation at G2/M-phase at 2.5 uM measured after 24 hrs by muse cell analyser (reference value: 36.3 to 36.88%); assay type: functional
PANC-1 [23] = experiment: Induction of apoptosis in human PANC-1 cells measured after 48 hrs by Annexin V and dead cell kit analysis; assay type: functional, cell-based; settings: dose 5-7.5 µM
PANC-1 [24] = experiment: Cell cycle arrest in human PANC-1 cells assessed as accumulation at S-phase at 2.5 uM measured after 24 hrs by muse cell analyser (reference value: 14.3 to 14.9%); assay type: functional
PANC-1 [25] = experiment: Induction of apoptosis in human PANC-1 cells assessed as viable cells at 5 uM measured after 48 hrs by Annexin V and dead cell kit analysis (reference value: 85.6%); assay type: functional; settings: read-out: Activity
MCF7 [26] = experiment: Cell cycle arrest in human MCF7 cells assessed as accumulation at G0/G1-phase at 7.5 uM measured after 24 hrs by muse cell analyser (reference value: 52.65 to 53.3%); assay type: functional
HCT-116 = experiment: Cytotoxicity against human HCT-116 cells assessed as reduction in cell viability measured after 72 hrs by MTS assay; assay type: functional, cell-based; settings: HCT-116, 72 h
PANC-1 [27] = experiment: Cell cycle arrest in human PANC-1 cells assessed as accumulation at S-phase at 5 uM measured after 24 hrs by muse cell analyser (reference value: 14.3 to 14.9%); assay type: functional
PANC-1 [28] = experiment: Induction of apoptosis in human PANC-1 cells assessed as early apoptotic cells at 7.5 uM measured after 48 hrs by Annexin V and dead cell kit analysis (reference value: 10.95%); assay type: functional
MCF7 [29] = experiment: Induction of apoptosis in human MCF7 cells assessed as early apoptotic cells at 5 uM measured after 48 hrs by Annexin V and dead cell kit analysis (reference value: 0.65%); assay type: functional
DNA [30] = experiment: Induction of Escherichia coli supercoiled pUC19 plasmid DNA cleavage assessed as increase in open circular form of a plasmid at 25 uM incubated for 60 mins by agarose gel electrophoresis analysis; assay type: nucleic-acid assay
MCF7 [31] = experiment: Induction of apoptosis in human MCF7 cells assessed as late apoptotic cells at 5 uM measured after 48 hrs by Annexin V and dead cell kit analysis (reference value: 1.45%); assay type: functional
MCF7 [32] = experiment: Induction of apoptosis in human MCF7 cells assessed as viable cells at 7.5 uM measured after 48 hrs by Annexin V and dead cell kit analysis (reference value: 97.4%); assay type: functional; settings: read-out: Activity
PANC-1 [33] = experiment: Cell cycle arrest in human PANC-1 cells assessed as accumulation at G0/G1-phase at 7.5 uM measured after 24 hrs by muse cell analyser (reference value: 48.28 to 48.7%); assay type: functional
PANC-1 [34] = experiment: Cell cycle arrest in human PANC-1 cells assessed as accumulation at G2/M-phase at 7.5 uM measured after 24 hrs by muse cell analyser (reference value: 36.3 to 36.88%); assay type: functional
NHDF = experiment: Cytotoxicity against NHDF cells assessed as reduction in cell viability measured after 72 hrs by MTS assay; assay type: cell-based; settings: Homo sapiens
MCF7 [35] = experiment: Induction of reactive oxygen species generation in human MCF7 cells at 1 uM measured after 24 hrs by cellrox-green reagent based assay relative to control; assay type: functional
MCF7 [36] = experiment: Induction of apoptosis in human MCF7 cells assessed as necrotic cells at 5 uM measured after 48 hrs by Annexin V and dead cell kit analysis (reference value: 0.5%); assay type: functional

c1ccc(-c2cn(-c3ccc(-c4cc(-c5ccccn5)nc(-c5ccccn5)c4)cc3)nn2)nc1
Activity (DNA [1]): Active
IC50 (PANC-1 [2]): 114 nM
Activity (MCF7 [3]): 4.15%
Activity (MCF7 [4]): 22.4%
Activity (MCF7 [5]): inactive
Activity (PANC-1 [6]): 55.1%
Activity (PANC-1 [7]): 35.25%
IC50 (MCF7 [8]): 407 nM
Activity (PANC-1 [9]): Dose-dependent effect
Activity (PANC-1 [10]): 41.4%
Activity (MCF7 [11]): Active
Activity (PANC-1 [12]): inactive
Activity (MCF7 [13]): 55.97%
Activity (PANC-1 [14]): Active
Activity (MCF7 [15]): inactive
Activity (PANC-1 [16]): Active
Activity (MCF7 [17]): 22%
Activity (MCF7 [18]): Dose-dependent effect
viability at 7.5 µM (PANC-1 [19]): 39%
fold change (FC) [20]: 45
Activity (PANC-1 [21]): inactive
IC50 (K562): 916 nM
Activity (PANC-1 [22]): 30.2%
Activity (PANC-1 [23]): Dose-dependent effect
Activity (PANC-1 [24]): 11.2%
viability at 5 µM (PANC-1 [25]): 48.8%
Activity (MCF7 [26]): 60.4%
IC50 (HCT-116): 243 nM
Activity (PANC-1 [27]): 7.3%
Activity (PANC-1 [28]): 54.6%
Activity (MCF7 [29]): 10.6%
Activity (DNA [30]): Active
Activity (MCF7 [31]): 11.4%
viability at 7.5 µM (MCF7 [32]): 50.2%
Activity (PANC-1 [33]): 58.75%
Activity (PANC-1 [34]): 31%
IC50 (NHDF): > 25000 nM
Activity (MCF7 [35]): >150%
Activity (MCF7 [36]): 10.9%
